Patent US20230158034A1, “CO-TREATMENT WITH CDK4/6 AND CDK2 INHIBITORS TO SUPPRESS TUMOR ADAPTATION TO CDK2 INHIBITORS” (Pfizer Inc., priority 2020, published 2023)

Assays:
[1] = system: CDK2 activity (DHB sensor phosphorylation); assay: DHB-based CDK2 activity sensor, single-cell time-lapse imaging (C/N ratio); parameters: species or system human
Description: (§1) The DHB sensor is localized to the nucleus when it is not phosphorylated. Upon phosphorylation, the nuclear localization signal is masked, the nuclear export signal is unmasked, and the sensor steadily translocates to the cytoplasm in response to increasing CDK2 activity (FIG. 1A). Thus, kinase activity can be quantified by the ratio of the cytoplasmic to nuclear fluorescence intensity (C/N ratio) of the DHB sensor. […] Asynchronously cycling cells were first imaged for approximately 20 hr in the absence of drug to establish the cell-cycle phase of each cell; the movie was then paused to add drug, and then imaging was continued for another 1-2 days. Because the cells were cycling asynchronously, all cell-cycle phases with one drug treatment were sampled. This allowed the present inventors to computationally isolate traces for cells that received drug at any time since the completion of anaphase.
(§2) Cells were seeded at least 24 hr prior to imaging in phenol-red-free full-growth medium in glass-bottom 96-well plates (CellVis P96-1.5H-N) that were coated with collagen prior to seeding. The seeding density was chosen such that the cells would remain sub-confluent until the end of the imaging period. Cells were first imaged for 16-20 hr in full-growth media without drug. The movie was then briefly paused and the full-growth media was replaced with full-growth media containing drug at the desired concentration. The plate was then re-inserted into the microscope and aligned to its prior position and imaging was continued for an additional 24-48 hr. Images were acquired every 12 min (for MCF10A or RPE-hTERT) or every 20 min (for MCF7 or OVCAR3) on a Nikon Eclipse Ti or Ti2 microscope with a 10×0.45 NA objective in a humidified, 37° C. chamber at 5% CO2. Exposure times for all movies for all channels were kept under 500 ms per timepoint to minimize phototoxicity. Cell tracking was performed using published MATLAB scripts (Cappell et al., 2016), as described previously (Arora et al., 2017). The tracking code is available for download at https://github.com/scappell/Cell_tracking. Cell counts over time were obtained by counting the number of segmented nuclei in each frame of the movie.
Asynchronously cycling cells that divided and received drug treatments during the imaging period were initially segmented into categories based on the cells' time of anaphase relative to the time of drug addition. These cells were then additionally subcategorized based on their DHB cytoplasmic/nuclear (C/N) ratio after the mitotic event. C/N ratio was calculated by quantifying the ratio of cytoplasmic to nuclear mean DHB fluorescence, with the cytoplasmic component calculated as the mean of the top 50th percentile of a ring of pixels outside of the nuclear mask.
Cells were classified as CDK2^inc if the DHB C/N ratio was above 0.5 units 3 hr after anaphase, otherwise they were classified as CDK2^low. Figure legends indicate whether only CDK2^inc cells or whether all cells are plotted. The median of the single-cell traces in a subcategory was then used to create median trace with 95% confidence interval representative of the particular subcategory. All cell trace analysis was done using custom MATLAB scripts and code is available upon request.

[2] = system: MCF10A, RPE-hTERT, MCF7 and OVCAR3 cells; assay: Cell-cycle progression, mitosis and proliferation by time-lapse imaging; assay type: cell-based, human
Description: as §1, §2

[3] = system: phosphorylated peptides containing a minimal CDK consensus motif (SP or TP) in MCF7 cells; assay: Phospho-proteomics (mass spectrometry) of CDK substrate phosphorylation after PF3600; assay type: cell-based, Homo sapiens
Method: CDK2 substrate dynamics were globally assessed through phospho-proteomics.
Phospho-peptide enrichment was performed as previously described (Lapek et al., 2017b). Lyophilized phospho-peptides were then TMT-labeled and fractionated by reverse phase basic pH fractionation and fractions combined as previously described (Edwards and Haas, 2016). Fractions were lyophilized and stored at […] until MS analysis. For LC-MS2/MS3 analysis, samples were reconstituted in 10 μL of 5% acetonitrile in 5% formic acid and 8 μL of each fraction was injected on the Orbitrap Fusion Lumos for analysis.
Peptides were eluted on a 165-minute gradient of 7-32% solvent B (80% acetonitrile in 0.1% formic acid) at 300 nL/min on a PepMap RSLC C18 column (2 μm, 100 Å, 75 μm×50 cm) heated to 60° C. Spectra were acquired in Top Speed mode, with a 5 second cycle. MS1 data were collected in the Orbitrap at 60000 resolution across a range of 500-1500 m/z. An automatic gain control (AGC) target of 2×10^5 was used with a maximum injection time of 100 ms. MS2 data were acquired in the ion trap with a rapid scan rate, maximum injection time of 70 ms, and an AGC target of 2×10^4. The quadrupole was used for isolation, with an isolation window of 0.5 m/z. […]
Data were normalized in a multistep process as previously described (Lapek et al., 2017a). […] All phospho data was processed and analyzed at the peptide level.

[4] = PF3600, MCF10A, MCF7 and RPE-hTERT cells

Compound	DHB sensor phosphorylation behavior ([1]; 25 nM PF3600, MCF7)	DHB sensor phosphorylation behavior ([1]; 100 nM PF3600, MCF7)	cells that initially responded ([1]; PF3600)	rebound of DHB sensor phosphorylation ([1]; PF3600, OVCAR3 cells)	onset of rebound in DHB sensor phosphorylation [1, 4]	time until DHB sensor phosphorylation returned to pre-treatment levels [1, 4]	cell proliferation and mitoses ([2]; 25 nM PF3600, OVCAR3 cells, remainder of the imaging period)	mitosis ([2]; 100 nM PF3600, MCF7)	cell-cycle progression and mitosis after PF3600 [2, 4]	intermitotic times [2, 4]	number of SP/TP peptides whose phosphorylation was significantly reduced (p<0.05) ([3]; 25 nM PF3600, 1 hr)	fate of the reduced phosphopeptides at 24 hr ([3]; 25 nM PF3600, 24 hr)	effect on DHB sensor phosphorylation, cell-cycle progression, or the timing of mitosis ([1]; 1 μM palbociclib added 5 hr or later after anaphase/mitosis, MCF10A)	cell-cycle arrest ([2]; 1 μM palbociclib (after the upcoming mitosis) or 9 μM RO3306 (toward end of cell cycle), MCF10A)	sensitivity to palbociclib ([2]; MCF10A, MCF7 and RPE-hTERT cells)	sensitivity to palbociclib ([2]; OVCAR3 cells (amplification of cyclin E))
C[C@@]1(O)CCC[C@H]1n1c(=O)c(C(F)F)cc2cnc(NC3CCN(S(C)(=O)=O)CC3)nc21 [PF3600, 6-(difluoromethyl)-8-[(1R,2R)-2-hydroxy-2-methylcyclopentyl]-2-{[1-(methylsulfonyl)-piperidin-4-yl]amino}pyrido[2,3-d]pyrimidin-7(8H)-one]	drop-rebound behavior	brief rebound followed by long-lived suppression of DHB phosphorylation	100%	did not rebound	1 to 2 h	≤ 5 h	inhibited cell proliferation and prevented all further mitoses	blocked mitosis	cell-cycle progression continued, and cells eventually completed mitosis	longer intermitotic times	40 peptides	vast majority of these rebounded to control levels	–	–	–	–
CC(=O)c1c(C)c2cnc(Nc3ccc(N4CCNCC4)cn3)nc2n(C2CCCC2)c1=O [palbociclib]	–	–	–	–	–	–	–	–	–	–	–	–	no immediate effect	CDK2^low G0 arrest	palbociclib-sensitive	resistant
